Experimental data reported in US20210308173A1, “PHARMACEUTICAL COMPOSITION COMPRISING CYCLODEXTRIN COMPLEXES OF ANETHOLE TRITHIONE OR DERIVATIVES THEREOF” (priority 2018, published 2021).
≈ marks a conversion by molar mass, not a printed value.

Legend:
[1] = Solubility testing in buffer containing media; assay type: physicochemical
Procedure: The solubility of AOL was tested in aqueous HP-β-CD and SBE-β-CD media at various concentrations and pH levels at room temperature. Some initial tests, where the pH of the formulations was adjusted only by addition of HCl or NaOH solutions, did evidence high variation in pH and difficulties to reach the target pH. Therefore, it was decided to prepare samples containing a buffering agent to get a stable pH and to facilitate the preparation of the formulations.
A citrate buffer was used at pH 5.5 and phosphate buffer were used at pH 6.5 and 7.5. The solubility (mg/mL) is the mean of 2 independent replicates.

[2] = Incompatibility of AOL with lipid carriers (visual examination); assay type: physicochemical
Procedure: 100 mg of AOL were successfully dissolved in 20 mL of polyglyceryl-3 dioleate (Plurol® Oleique). A homogenous vividly orange colored solution was obtained with less than 5 minutes of magnetic stirring.
The obtained solution turned greed with obvious aspect and odor having turned rancid.
100 mg of AOL were successfully dissolved in 20 mL of 2-[2,3-bis(2-hydroxyethoxy)propoxy]ethanol; hexadecanoic acid; octadecanoic acid (Labrafil® M1944). A homogenous orange colored solution was obtained with less than 5 minutes of magnetic stirring.
The obtained solution turned dark green.
A new solution of 5 mg/mL AOL in Labrafil® M1944 and stocked in a hermetically closed recipient.

[3] = Chemical stability of AOL in cyclodextrin solutions by HPLC; assay type: physicochemical; conditions: associated with HP-β-CD, conditions of Example 4
[4] = Optimal SBE-β-CD/AOL molar ratio for solubilization; assay type: physicochemical
Source text: Using an optimized AOL/SBE-β-CD molar ratio enabled the Applicant to overcome all the aforementioned shortcomings. Indeed, the obtained formulation can be injected without exceeding the daily cyclodextrin administration threshold, solubilizes AOL without presenting a prohibiting viscosity. The chemical stability of AOL was maintained by such a formulation. […] Without willing to be bound by a theory the complex association (interaction outside the cavity of the cyclodextrin) enhances its solubility without hindering its bioavailability when the formulation is administered to a subject in need thereof.

[5] = Cyclodextrin solubilization screening of AOL; assay type: physicochemical; conditions: water, 25 °C, thermodynamic from solid, read-out: intrinsic solubility in water
[6] = background statement; cited from earlier work

Structure (SMILES): COc1ccc(-c2cc(=S)ss2)cc1 [AOL, 5-(4-methoxyphenyl)-3H-1,2-dithiole-3-thione]
- solubility ([1]; aqueous SBE-β-CD medium with buffer, pH 5.5, aqueous with cosolvent or surfactant or cyclodextrin, SBE-β-CD 10.0% (w/w), Citrate (100 μM), room temperature, read-out: AOL solubility): 165 µg/mL (≈ 686 µM)
- solubility ([1]; aqueous SBE-β-CD medium with buffer, pH 5.5, aqueous with cosolvent or surfactant or cyclodextrin, SBE-β-CD 40.0% (w/w), Citrate (100 μM), room temperature, read-out: AOL solubility): 1140 µg/mL (≈ 4730 µM)
- solubility ([1]; aqueous SBE-β-CD medium with buffer, pH 6.5, aqueous with cosolvent or surfactant or cyclodextrin, SBE-β-CD 10.0% (w/w), Phosphate 6.5 (100 μM), room temperature, read-out: AOL solubility): 168 µg/mL (≈ 699 µM)
- solubility ([1]; aqueous SBE-β-CD medium with buffer, pH 6.5, aqueous with cosolvent or surfactant or cyclodextrin, SBE-β-CD 40.0% (w/w), Phosphate 6.5 (100 μM), room temperature, read-out: AOL solubility): 1210 µg/mL (≈ 5020 µM)
- solubility ([1]; aqueous SBE-β-CD medium with buffer, pH 7.5, aqueous with cosolvent or surfactant or cyclodextrin, SBE-β-CD 40.0% (w/w), Phosphate 7.5 (100 μM), room temperature, read-out: AOL solubility): 1180 µg/mL (≈ 4920 µM)
- solubility ([1]; buffered aqueous HP-β-CD medium, pH 5.5, aqueous with cosolvent or surfactant or cyclodextrin, HP-β-CD 10.0% (w/w), Citrate (100 μM), room temperature, read-out: AOL solubility): 79 µg/mL (≈ 329 µM)
- solubility ([1]; buffered aqueous HP-β-CD medium, pH 5.5, aqueous with cosolvent or surfactant or cyclodextrin, HP-β-CD 20.0% (w/w), Citrate (100 μM), room temperature, read-out: AOL solubility): 212 µg/mL (≈ 882 µM)
- solubility ([1]; buffered aqueous HP-β-CD medium, pH 5.5, aqueous with cosolvent or surfactant or cyclodextrin, HP-β-CD 30.0% (w/w), Citrate (100 μM), room temperature, read-out: AOL solubility): 505 µg/mL (≈ 2100 µM)
- solubility ([1]; buffered aqueous HP-β-CD medium, pH 5.5, aqueous with cosolvent or surfactant or cyclodextrin, HP-β-CD 40.0% (w/w), Citrate (100 μM), room temperature, read-out: AOL solubility): 721 µg/mL (≈ 3000 µM)
- solubility ([1]; buffered aqueous HP-β-CD medium, pH 6.5, aqueous with cosolvent or surfactant or cyclodextrin, HP-β-CD 10.0% (w/w), Phosphate 6.5 (100 μM), room temperature, read-out: AOL solubility): 111 µg/mL (≈ 462 µM)
- solubility ([1]; buffered aqueous HP-β-CD medium, pH 6.5, aqueous with cosolvent or surfactant or cyclodextrin, HP-β-CD 20.0% (w/w), Phosphate 6.5 (100 μM), room temperature, read-out: AOL solubility): 274 µg/mL (≈ 1140 µM)
- solubility ([1]; buffered aqueous HP-β-CD medium, pH 6.5, aqueous with cosolvent or surfactant or cyclodextrin, HP-β-CD 30.0% (w/w), Phosphate 6.5 (100 μM), room temperature, read-out: AOL solubility): 480 µg/mL (≈ 2000 µM)
- solubility ([1]; buffered aqueous HP-β-CD medium, pH 6.5, aqueous with cosolvent or surfactant or cyclodextrin, HP-β-CD 40.0% (w/w), Phosphate 6.5 (100 μM), room temperature, read-out: AOL solubility): 676 µg/mL (≈ 2810 µM)
- solubility ([1]; buffered aqueous HP-β-CD medium, pH 7.5, aqueous with cosolvent or surfactant or cyclodextrin, HP-β-CD 10.0% (w/w), Phosphate 7.5 (100 μM), room temperature, read-out: AOL solubility): 112 µg/mL (≈ 466 µM)
- solubility ([1]; buffered aqueous HP-β-CD medium, pH 7.5, aqueous with cosolvent or surfactant or cyclodextrin, HP-β-CD 20.0% (w/w), Phosphate 7.5 (100 μM), room temperature, read-out: AOL solubility): 283 µg/mL (≈ 1180 µM)
- solubility ([1]; buffered aqueous HP-β-CD medium, pH 7.5, aqueous with cosolvent or surfactant or cyclodextrin, HP-β-CD 30.0% (w/w), Phosphate 7.5 (100 μM), room temperature, read-out: AOL solubility): 540 µg/mL (≈ 2250 µM)
- solubility ([1]; buffered aqueous HP-β-CD medium, pH 7.5, aqueous with cosolvent or surfactant or cyclodextrin, HP-β-CD 40.0% (w/w), Phosphate 7.5 (100 μM), room temperature, read-out: AOL solubility): 723 µg/mL (≈ 3010 µM)
- solubility ([1]; buffered aqueous SBE-β-CD medium, pH 5.5, aqueous with cosolvent or surfactant or cyclodextrin, SBE-β-CD 20.0% (w/w), Citrate (100 μM), room temperature, read-out: AOL solubility): 369 µg/mL (≈ 1540 µM)
- solubility ([1]; buffered aqueous SBE-β-CD medium, pH 5.5, aqueous with cosolvent or surfactant or cyclodextrin, SBE-β-CD 30.0% (w/w), Citrate (100 μM), room temperature, read-out: AOL solubility): 675 µg/mL (≈ 2810 µM)
- solubility ([1]; buffered aqueous SBE-β-CD medium, pH 6.5, aqueous with cosolvent or surfactant or cyclodextrin, SBE-β-CD 20.0% (w/w), Phosphate 6.5 (100 μM), room temperature, read-out: AOL solubility): 382 µg/mL (≈ 1590 µM)
- solubility ([1]; buffered aqueous SBE-β-CD medium, pH 6.5, aqueous with cosolvent or surfactant or cyclodextrin, SBE-β-CD 30.0% (w/w), Phosphate 6.5 (100 μM), room temperature, read-out: AOL solubility): 676 µg/mL (≈ 2810 µM)
- solubility ([1]; buffered aqueous SBE-β-CD medium, pH 7.5, aqueous with cosolvent or surfactant or cyclodextrin, SBE-β-CD 10.0% (w/w), Phosphate 7.5 (100 μM), room temperature, read-out: AOL solubility): 170 µg/mL (≈ 707 µM)
- solubility ([1]; buffered aqueous SBE-β-CD medium, pH 7.5, aqueous with cosolvent or surfactant or cyclodextrin, SBE-β-CD 20.0% (w/w), Phosphate 7.5 (100 μM), room temperature, read-out: AOL solubility): 375 µg/mL (≈ 1560 µM)
- solubility ([1]; buffered aqueous SBE-β-CD medium, pH 7.5, aqueous with cosolvent or surfactant or cyclodextrin, SBE-β-CD 30.0% (w/w), Phosphate 7.5 (100 μM), room temperature, read-out: AOL solubility): 685 µg/mL (≈ 2850 µM)
- solubility ([1]; buffered aqueous cyclodextrin solution, pH 6.5, aqueous with cosolvent or surfactant or cyclodextrin, 40% SBE-β-cyclodextrin, pH 6.5 phosphate buffer, read-out: highest solubility value): 1210 µg/mL (≈ 5020 µM)
- solubility ([1]; buffered aqueous cyclodextrin solution, pH 7.5, aqueous with cosolvent or surfactant or cyclodextrin, 40% HP-β-cyclodextrin, pH 7.5 phosphate buffer, read-out: highest solubility value): 723 µg/mL (≈ 3010 µM)
- visual examination of the solution ([2]; 5 mg/mL in Labrafil M1944, hermetically closed recipient, 24 hours at room temperature): same stability problem
- magnetic stirring time to homogenous solution ([2]; 100 mg in 20 mL Labrafil M1944): less than 5 minutes
- magnetic stirring time to homogenous solution ([2]; 100 mg in 20 mL polyglyceryl-3 dioleate (Plurol Oleique)): less than 5 minutes
- visual examination of the solution ([2]; Labrafil M1944, after 24 hours at room temperature): intense color change
- visual examination of the solution ([2]; Plurol Oleique, after 24 hours at room temperature): intense color change
- stability within lipid carriers ([2]; period of 24 hours, visual observation): unstable
- chemical stability (HPLC impurities) [3]: chemical instability
- SBE-β-CD/AOL molar ratio at which optimal solubilization was observed [4]: > 29
- solubility [5]: ~0.2 µg/mL (≈ 0.832 µM)
- intrinsic aqueous solubility [6]: less than 0.3 mg/L
